Data on six molecules can be found in paper PMC8198750, “Synthesis of Novel Halogenated Heterocycles Based on o-Phenylenediamine and Their Interactions with the Catalytic Subunit of Protein Kinase CK2” (Molecules, 2021).

The structures appear in SMILES notation. Where two headings read alike, the source gives them in different places.

For data set [1], the target named is CK2. The following applies: cited from earlier work.
The target of data set [2] is T1, hCK2α (Homo sapiens, UniProt P68400).
T1 construct: made in house
T1 sequence (P68400 whole entry): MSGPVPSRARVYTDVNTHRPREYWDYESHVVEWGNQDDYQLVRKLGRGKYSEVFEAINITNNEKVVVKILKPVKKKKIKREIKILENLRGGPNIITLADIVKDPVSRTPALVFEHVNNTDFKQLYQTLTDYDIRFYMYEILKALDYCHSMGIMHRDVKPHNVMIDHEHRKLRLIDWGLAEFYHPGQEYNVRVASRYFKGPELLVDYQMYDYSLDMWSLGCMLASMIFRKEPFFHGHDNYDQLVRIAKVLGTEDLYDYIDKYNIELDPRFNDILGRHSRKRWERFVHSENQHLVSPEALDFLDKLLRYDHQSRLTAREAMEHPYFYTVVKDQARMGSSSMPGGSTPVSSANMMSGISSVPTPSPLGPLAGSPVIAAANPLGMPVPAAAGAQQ
The experiment in a line: nanoDSF thermal shift assay (low-volume differential scanning fluorimetry). It is filed as binding. The following applies: 10-fold excess of ligand (1:10 protein–ligand), 2.5 μM protein, relative to apo hCK2α, 2% DMSO, pH 8; read-out: ΔTm. As for the experimental part: Binding affinities of the newly synthesized compounds towards hCK2α were assessed with the low-volume differential scanning fluorimetry (nanoDSF). The shift of the temperature of thermal denaturation in the presence of 10-fold excess of a particular ligand relative to the apo form of hCK2α (ΔTm) can be used as a semi-qualitative measure of the binding affinity or inhibitory activity.
hCK2α was expressed and purified according to the method described previously. Thermal stability of 1:10 protein–ligand complexes was monitored on Prometheus (Nanotemper Technologies, München, Germany) using PR-C002 Prometheus NT.48 Standard Capillaries using temperature ramp of 20 to 80 °C with 1 °C/min heating rate. Temperature-induced variation in ratio fluorescence intensity at 330 and 350 nm was globally analyzed using the procedure described before. All experiments were performed in 25 mM Tris–HCl (pH 8, 0.5 M NaCl) with 2% (v/v) DMSO. Protein was kept in constant 2.5 μM concentration.
For orientation: Differential scanning fluorimetry follows unfolding on heating by fluorescence.

A short description of data set [3]: RP-HPLC chromatographic hydrophobicity index. It is filed as physicochemical. As to conditions: C18, 2:1 methanol:20 mM aqueous ammonium formate pH 8; τ = (Tret − T0)/T0. As for the experimental part: RP-HPLC method, a fast and efficient alternative for standard logD determination in octan-1-ol/water system, was used to assess the hydrophobicity of all synthesized compounds. This method has been successfully used in our laboratory for halogenated benzotriazole derivatives, including the evaluation of the effect of hydrophobicity on their binding to the catalytic subunit of protein kinase CK2 [24, 43].
Chromatographic hydrophobicity index (log(τ)) was determined with the reverse phase HPLC (RP-HPLC). Column: Nova-pak® C18 4 μm, 4.6 × 250 mm. Eluent: 2:1 methanol: 20 mM aqueous ammonium formate (pH = 8) (v/v). Flow: 0.7 mL/min. Detector wavelength: 280 nm. The individual retention times (Tret) were converted to a hydrophobicity scale according to the formula τ = (Tret − T0)/T0. where the retention time of unretained solvent (T0) was estimated to 300 s.

For data set [4], the target named is T1, hCK2α. Nature of the data set: Inhibitory activity against human CK2α (ADP-Glo kinase assay). As to conditions: inhibitor 1 nM–1 mM, triplicate. Format: biochemical. As for the experimental part: The inhibitory effect of 8 selected compounds was monitored based on the luminescence measured with the SpectraMax iD3 Multi-Mode Microplate Reader (Molecular Devices, San Jose, CA, USA), using the previously described method with the aid of ADP-Glo kinase assay (Promega, Walldorf, Germany). Inhibitor concentration varied in the range of 1 nM–1 mM (see Supplementary Figure S38). Each experiment was repeated in triplicate and IC50 values were further estimated globally using the sigmoidal dose-response equation implemented in Origin 9.4 package (www.originlab.com, upgraded 20.07.27).
Background: In ADP-Glo the light output rises with the ADP produced.

The subject of data set [5] is epidermoid carcinoma A-431. The experiment in a line: MTT cell viability assay, A-431. It is filed as cell-based. The following applies: Homo sapiens, 72 h. From the text:
(§1) The following human cell lines were used in this study: (i) epidermoid carcinoma A-431 (ATCC® CRL-1555), (ii) colorectal carcinoma HCT116 (ATCC® CCL-247), (iii) colorectal carcinoma HCT116p53^−/−, and (iv) normal fibroblasts BJ (ATCC® CRL-2522). The HCT116p53^−/− cell line was a kind gift from professor Bert Vogelstein (John Hopkin’s University, Baltimore, MD, USA). The remaining cell lines were purchased from ATCC (Manassas, VA, USA) or Sigma Aldrich by Merck (Darmstadt, Germany).
(§2) Cells were cultured in Dulbecco’s modified Eagle’s or Roswell Park Memorial Institute (RPMI)-1640 medium supplemented with 10% or 15% fetal bovine serum (Gibco by Thermo Fisher Scientific, Waltham, MA, USA) under standard culture conditions (37 °C, 5% CO2) in a humidified incubator with atmospheric oxygen.
(§3) The viability of cells was assayed by measuring the conversion of MTT (3-(4,5-dimethylthiazol-2-yl)-2,5-diphenyltetrazolium bromide) to the formazan (the rate of this reaction is proportional to the number of surviving cells). Cells were seeded in a 96-well plate at a density of 1500–2500 cells per well, 24 h before treatment. Treatment with tested compounds and cisplatin (0.25–160 µM) was performed for 72 h. MTT stock solution (Sigma-Aldrich) was added at the final concentration 0.5 mg/mL. After 2 h of incubation at 37 °C, water-insoluble formazan was dissolved in a lysis buffer containing 20% SDS, 50% DMF, 2.5% hydrochloric acid, and 2.5% acetic acid. Optical densities were measured at 570 nm using a scanning multi-well spectrophotometer ([…] Detection Platform; Beckman Coulter, Brea, CA, USA).

The test system of data set [6] is normal fibroblasts BJ. Nature of the data set: MTT cell viability assay, BJ. It is filed as cell-based, human. As to conditions: Homo sapiens, Fibroblast; MTT, 72 h.
From the text: as §1, §2, §3
(Formazan colour is commonly taken as a measure of viable cells.)

The subject of data set [7] is colorectal carcinoma HCT116. The experiment in a line: MTT cell viability assay, HCT116. It is filed as cell-based. As to conditions: Homo sapiens, HCT-116, 72 h, read-out: IC50 HTC116.
From the text: as §1, §2, §3

In data set [8] the test system is colorectal carcinoma HCT116p53−/−. Nature of the data set: MTT cell viability assay, HCT116p53−/−. It is filed as cell-based. As to conditions: Homo sapiens, 72 h.
From the text: as §1, §2, §3

Data set [9] concerns phytohemagglutinin-stimulated normal human lymphocytes. On the set-up: method as in PMID 12660022. The following applies: cited from earlier work.
Data set [10] concerns MCF-7 (breast carcinoma). On the set-up: method as in PMID 12660022. The following applies: cited from earlier work.
Data set [11] deals with PC-3 (prostate carcinoma). On the set-up: method as in PMID 12660022. As to conditions: cited from earlier work.
Data set [12] has as its system A-431, HCT116, HCT116p53−/−, BJ. The experiment in a line: MTT cell viability, reference cell lines as a whole. It is filed as cell-based. As to conditions: Homo sapiens; viability tests, cell line not specified.
From the text: as §1, §2
The viability of cells was assayed by measuring the conversion of MTT (3-(4,5-dimethylthiazol-2-yl)-2,5-diphenyltetrazolium bromide) to the formazan (the rate of this reaction is proportional to the number of surviving cells). Cells were seeded in a 96-well plate at a density of 1500–2500 cells per well, 24 h before treatment. Treatment with tested compounds and cisplatin (0.25–160 µM) was performed for 72 h. […] Optical densities were measured at 570 nm using a scanning multi-well spectrophotometer ([…] Detection Platform; Beckman Coulter, Brea, CA, USA).

[13] abbreviates: read-out: IC50 against CK2 / inhibitory activity.

On to `O=c1[nH]c2c(Br)c(Br)c(Br)c(Br)c2[nH]1` [4,5,6,7-tetrabromo-1H-benzo[d]imidazol-2(3H)-one], for which, in [1], the inhibition constant (Ki) is 0.2 µM. For the same molecule, the IC50 in [1] (read-out: IC50 CK2) was 0.39 µM.

For the molecule `FC(F)(F)c1nc2c(Br)c(Br)c(Br)cc2[nH]1` [4,5,6-tribrominated], in data set [1] (setting [13]), the IC50 was 1.2 µM.

For the molecule `FC(F)(F)c1nc2cc(Br)c(Br)cc2[nH]1` [Compound 3d, 5,6-dibromo-2-trifluoromethylo-1H-benzimidazole], the ΔTm at 25 µM in [2] was found to be 2.4 ± 0.1 °C. Besides, the “log(τ) HPLC-derived hydrophobicity index” value in data set [3] is recorded as 0.310. Also, the IC50 is 15 ± 3 µM in data set [4]; 13 ± 2 µM in data set [5]; 55 ± 6 µM in data set [6]; 10 ± 2 µM in data set [7]; 12 ± 2 µM in [8]; 28 µM in data set [1] (setting [13]). Besides, the IC80 is 8.7 µM in data set [9], under 3 µM in data set [10] and under 3 µM in data set [11].

With `Oc1nc2cc(Br)c(Br)cc2nc1O` [Compound 7d], in data set [2], the ΔTm at 25 µM was 2.7 ± 0.1 °C. Further, the “log(τ) HPLC-derived hydrophobicity index” value in data set [3] is reported as −0.174. Further, the IC50 in data set [4] worked out at 13 ± 4 µM; in data set [5], 385 ± 82 µM; in [6], 16 ± 2 µM; in data set [7], 195 ± 35 µM; in [8], 850 ± 300 µM.

In the case of `Oc1nc2cc(I)c(I)cc2nc1O` [Compound 7e], the ΔTm at 25 µM in [2] was 4.1 ± 0.1 °C. Besides, in data set [3], the “log(τ) HPLC-derived hydrophobicity index” value is −0.117. Moreover, the IC50 in data set [4] is 2 ± 1 µM; in data set [5], 94 ± 14 µM; in data set [6], 128 ± 13 µM; in data set [7], 41 ± 4 µM; in [8], 70 ± 10 µM; in data set [12], about 100 µM.

On to `FC(F)(F)c1nc2c(Br)c(Br)c(Br)c(Br)c2[nH]1` [tetrabrominated], for which the IC50 in data set [1] (setting [13]) is 0.6 µM.

The term Ki denotes a measure of affinity in units of concentration, obtained from inhibition or displacement. The term ΔTm denotes the change in melting temperature against a reference sample. One may read the IC80 as the concentration needed for an effect of 80%.
